Data published in patent publication US10500198B2, “Bis-benzylidine piperidone proteasome inhibitor with anticancer activity” (The Johns Hopkins University, priority 2013, dated 2019).

Experiments:
[1] = tested on: HPV transformed cells; experiment: Cell viability, HPV transformed cells; type: cell-based; details: antiproliferative effects, 48-hr treatment; read-out: IC50 against HPV transformed cells
Experimental: (§1) Cell viability was assayed using CellTiter 960 AQueous One Solution Reagent (Promega, Madison, Wis.). Cells seeded at the concentration of 1,000 cells/well for HeLa, 5,000 cells/well for ES2 and HCT116 and 10,000-20,000 cells/well for other cell lines in 100 μL medium in 96-well plate were treated with RA series compounds at specified concentrations. After the indicated periods, cells were incubated according to the manufacturer's protocol with the MTS labeling mixture for 1-2 hr and absorbance at 490 nm measured using a Benchmark Plus microplate spectrophotometer (BIO-RAD).

[2] = tested on: MM and HeLa cells; experiment: Annexin-V flow cytometry; type: cell-based; details: 12 hr after treating
Experimental: Activation of ICE family members such as caspase-3 and -7 results in cleavage of poly ADP ribose polymerase (PARP) to 85 kDa and 25 kDa fragments and drives apoptosis.
Induction of apoptosis was determined using Annexin V-PE Apoptosis Detection Kit I (BD Pharmingen, San Diego, Calif.) according to the manufacturer's protocol.

[3] = tested on: TC-1 tumor; experiment: TC-1 tumor in C57BL6 mice; type: in vivo, mouse
Experimental: (§2) For TC-1 tumors, C57BL/6 mice (8/group) were challenged subcutaneously with 5×10^4 TC-1 cells/mice. Tumors grew for approximately 7 days until they were palpable, whereupon the mice were weighed and treatment was initiated. Tumor size was measured with a digital caliper and calculated based on the formula: [largest diameter×(perpendicular diameter)2]π/6. Nude mice (8 per group) were inoculated with 1×10^6 EΩ-Luciferase cells i.p. in 100 μL PBS. At day 3 mice were imaged for basal level luminescence expression. […] NOG mice (5 per group) were inoculated with 1×10^6 NCI-H929-GFP-Luc cells i.v., and after 4 weeks, mice were imaged for their luciferase activity and divided into two groups.
Splenocytes were prepared and stimulated with HPV16 E7aa49-57 peptide (1 μg/mL) at the presence of GolgiPlug (BD Pharmingen) overnight at 37° C. The cells were first stained with PE-conjugated anti-mouse CD 8α (BD Pharmingen), then permeabilized, fixed and intracellularly stained with FITC-conjugated anti-mouse IFN-γ (BD Pharmingen). The data were acquired with FACS Calibur and analyzed with CellQuest software.

[4] = tested on: HeLa cells; experiment: Cell surface HSP90 staining; type: cell-based, human; details: 24 hr
Excerpt: Cell surface HSP90 was detected by staining with purified anti-HSP90 mAb (Stressgen), followed by PE-conjugated anti-mouse IgG1. The data were acquired with a FACSCalibur and analyzed using CellQuest software.

[5] = tested on: RPMI-8226-V10R and ANBL6-V10R; experiment: Cell viability of bortezomib-resistant and parental MM lines; type: cell-based; details: 48 hr treatment
Experimental: Actin was used as a loading control. […] In FIG. 9C-E, purified 20S proteasomes were treated for 30 min with or without compounds (1 μM) prior to the addition of the specific fluorogenic substrate for chymotryptic (9C), tryptic (9D) or PGPH (9E) hydrolytic proteasome capacities. […] DMSO was added to all samples to a final concentration of 0.1% (upper panel). The effect of DMSO is highlighted by including ubiquitin—AMC (0.5 μM) hydrolysis with 2 nM UCH37 lacking DMSO (orange, bottom panel). In FIG. 9H, purified 19S RP (500 nM) in buffer was treated with corresponding compounds 30 min at 37° C. and AMC cleavage was measured with a fluorometer for 20 min. Ubal was used as a positive control.
as §1

[6] = tested on: SKOV3; experiment: Cell viability after 48-hr treatment (Table 1); type: cell-based; details: 48-hr treatment; XTT assay; read-out: IC50, SKOV3
In short: (§3)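 ES-2 cells were plated at 5,000 cells/well; the other lines used 10,000-20,000 cells/well. MTS reagent was added for 1-2 hr before measuring absorbance at 490 nm.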

[7] = tested on: FaDu; experiment: Cell viability after 48-hr treatment (Table 1); type: cell-based; details: 48-hr treatment; XTT assay; read-out: IC50, FaDu
In short: (§4)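 Viable cells were then quantified by a 1-2 hr MTS reaction with absorbance measured at 490 nm.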

[8] = tested on: MM.1S; experiment: Cell viability after 48-hr treatment (Table 1); type: cell-based; details: XTT assay
Experimental: Cell viability was assayed using CellTiter 960 AQueous One Solution Reagent (Promega, Madison, Wis.). Cells seeded at the concentration of 1,000 cells/well for HeLa, 5,000 cells/well for ES2 and HCT116 and 10,000-20,000 cells/well for other cell lines in 100 μL medium in 96-well plate were treated with RA series compounds at specified concentrations. […]

[9] = tested on: C33A; experiment: Cell viability after 48-hr treatment (Table 1); type: cell-based; details: 48-hr treatment; XTT assay; read-out: IC50, C33A
In short: as §3

[10] = tested on: ES2-luciferase tumor; experiment: ES2-luciferase tumor in nude mice; type: in vivo, mouse; details: 10 mg/kg i.p. every day, 14 days
Excerpt: Prior to and at the end of the treatment, mice were imaged for bioluminescence. […] The mice were imaged before and at the end of the treatment for bioluminescence levels. We have previously described the susceptibility of human ovarian cancer lines to proteasome inhibition. […] Prior to and 7 and 14 days after initiation of treatment, the mice were imaged for luciferase activity.
as §2

[11] = tested on: RPMI8226; experiment: Cell viability after 48-hr treatment (Table 1); type: cell-based; details: XTT assay
In short: as §3

[12] = tested on: HaCaT; experiment: Cell viability after 48-hr treatment (Table 1); type: cell-based; details: 48-hr treatment; XTT assay; read-out: IC50, HaCaT
In short: as §3

[13] = tested on: SiHa; experiment: Cell viability after 48-hr treatment (Table 1); type: cell-based; details: 48-hr treatment; XTT assay; read-out: IC50, SiHa
In short: as §4

[14] = tested on: HT3; experiment: Cell viability after 48-hr treatment (Table 1); type: cell-based; details: 48-hr treatment; XTT assay; read-out: IC50, HT3
In short: as §3

[15] = tested on: 4UbFL reporter; experiment: Proteasome inhibition in vivo (4UbFL reporter bioluminescence)
Experimental: After the indicated time points of treatment, bioluminescence was measured by injection of luciferin and imaging with an IVIS 200 (fold change±SD, *p<0.05, **p<0.01).
Two hours after gene gun delivery of the plasmid or one day post electroporation, mice were injected i.p. with 100 uL of luciferin (3 mg/mL) and anesthetized with isoflurane and optical imaging was performed for basal level luciferase expression. Images were acquired for 10 min with a Xenogen IVIS 200 (Caliper, Hopkinton, Mass.). Equally sized areas were analyzed using Living Image 2.20 software.

[16] = tested on: MM lines; experiment: Cell viability, MM lines; type: cell-based; details: antiproliferative effects, 48-hr treatment; read-out: IC50 against MM lines
Experimental: as §1

[17] = i.m. electroporated 4UbFL, RA190 40 mg/kg i.p., bortezomib 1.5 mg/kg i.p.

Cl.N[C@@H](Cc1ccccc1)C(=O)N1CC(=Cc2ccc(Cl)c(Cl)c2)C(=O)C(=Cc2ccc(Cl)c(Cl)c2)C1 [RA190, 3,5-bis(3,4-dichlorobenzylidene)-1-(S-2-amino-3-phenyl)-piperidin-4-one-HCl salt]
IC50 [1]: ≤ 300 nM | apoptosis (Annexin-V) [2]: trigger extensive apoptosis | polyubiquitinated proteins in tumor lysates ([3]; i.p. 20 mg/kg daily for 7 days, western blot): dramatically elevated | weight gain and spontaneous E7-specific CD8+ T cell response versus vehicle ([3]; oral 40 mg/kg every third day): did not differ significantly | final tumor weight ([3]; oral 40 mg/kg every third day, after 14-day treatment period): 727 ± 101 mg | TC-1 tumor growth versus vehicle ([3]; oral 40 mg/kg every third day, p<0.001): significantly inhibited | cells with cell-surface HSP90 [4]: 54.2% | efficacy against bortezomib-resistant derivative lines versus parental lines [5]: equally efficacious | IC50 [6]: > 2500 nM | IC50 [7]: > 2500 nM | IC50 [8]: 35 nM | IC50 [9]: > 5000 nM | ES2 tumor growth (bioluminescence) [10]: significantly inhibited | IC50 [11]: 100 nM | IC50 [12]: > 2500 nM | IC50 [13]: 750 nM | IC50 [14]: > 5000 nM | bioluminescence after oral administration ([15]; 40 mg/kg orally, 4UbFL i.m. by electroporation or in skin via gene gun): increased the bioluminescence | 4UbFL reporter in skin after topical administration ([15]; 4% in Cremophor-EL topically): stabilized the 4UbFL reporter in skin | bioluminescence at 48 hr after treatment ([15]; i.m. electroporated 4UbFL, RA190 40 mg/kg i.p.): significant increase in bioluminescence | bioluminescence compared to vehicle alone, 4 hr after treatment [15, 17]: 4 fold | increase in bioluminescence, one day post-treatment [15, 17]: 4 fold | IC50 [16]: ≤ 100 nM
